Experiment [1] concerns all members of the Atg8 family. Briefly: ITC binding to all members of the Atg8 family. The arrangement: species or system human. From the text:
The 440 kD AnkB and 480 kD AnkG both contain a giant exon encoding several thousand amino acid residues, though the homology between the two giant exon coding sequences is very limited. The 440 kD AnkB is also a neuronal specific isoform, and is mainly expressed in unmyelinated/premyelinated axons.
Thus, we will not describe the overall structures of the two complexes any further, except to note that the AnkB LIR also contains a well-defined C-helix extension following the LIR core motif.

The target of another experiment is LGG-1 (Caenorhabditis elegans, UniProt Q09490). Kind of experiment: ITC binding to purified LGG-1. The arrangement: species or system C. elegans. From the text:
(§1) C. elegans provides an ideal platform to study autophagy and especially to investigate roles of different members of Atg8 in autophagy, because worms contain both GABARAP and LC3 subfamily Atg8s and yet simple enough with one gene for each subfamily (worm lgg-1 and lgg-2 are […] of GABARAP and LC3, respectively). It has also been shown earlier on that lgg-1 and lgg-2 act non-redundantly in autophagy (Wu et al., 2015). Prior to performing autophagy assays in worms, we measured the bindings of various AnkB/G LIR peptides to purified LGG-1 and LGG-2 using the same method as we have described for FIGS. 1&3.

Another experiment has as its target T1, LGG-2 (Caenorhabditis elegans, UniProt Q23536).
T1 sequence (Q23536 1-130): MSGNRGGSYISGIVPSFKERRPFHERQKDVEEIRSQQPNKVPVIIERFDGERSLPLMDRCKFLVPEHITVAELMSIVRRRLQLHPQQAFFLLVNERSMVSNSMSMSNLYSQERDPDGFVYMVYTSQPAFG
Briefly: ITC binding to purified LGG-2. Details: species or system C. elegans. As to conditions: purified LGG-2.
Description: as §1

For experiment [2], the system named is LC3-positive puncta in COS7 cells. Kind of experiment: LC3-positive puncta in starved COS7 cells. It is filed as cell-based. The following applies: COS7 cells over-expressing mCherry-tagged peptide, nutrients deprivation. From the text: (§2) We used the well-established cultured COS7 cells for assessing autophagy inhibitions by the AnkB/G LIR peptides over-expressed in the cells. We quantified the numbers of endogenous LC3- or GABARAP-positive puncta, which represent LC3 or GABARAP-containing autophagic structures, as readouts to quantify autophagy inhibitions (Klionsky et al., 2016; Mizushima et al., 2010). After nutrients deprivation, obvious accumulations of LC3- or GABARAP-positive puncta could be observed in cells over-expressing mCherry only, indicating induction of autophagy by starvation (FIG. 6C6&E6). […] In contrast, expression of the mCherry-AnkB WR peptide had no impact on the LC3- or GABARAP-puncta numbers (i.e. with the same puncta numbers as expressing the mCherry vector control; FIG. 6C-F).

The subject of experiment [3] is GABARAP-positive puncta in COS7 cells. Briefly: GABARAP-positive puncta in starved COS7 cells. It is filed as cell-based. The following applies: COS7 cells over-expressing mCherry-tagged peptide, nutrients deprivation.
Description: as §2

Experiment [4] deals with p62-positive puncta in COS7 cells. Briefly: p62-positive puncta in starved COS7 cells. It is filed as cell-based. As to conditions: COS7 cells expressing mCherry-tagged peptide, starvation. From the text: We further quantified the level of p62, one of the best studied selective autophagy substrates, to monitor the autophagic flux in COS7 cells expressing various AnkB/G LIR peptides under the starvation condition (Klionsky et al., 2016; Mizushima et al., 2010). Upon autophagy induction, p62 forms aggregates via its LIR motif-mediated interactions to Atg8s and subsequent incorporation into autophagosomes (Bjorkoy et al., 2005; Pankiv et al., 2007). Only a relatively low and steady level of p62 aggregates is formed if autophagy flux is normal (i.e. p62-positive autophagosomes are steadily cleared by fusing with lysosomes; (Bjorkoy et al., 2005)), and this is indeed the case when cells were expressed with the mCherry vector control (FIG. 7F). […] This is consistent with a previous siRNA-based study showing that knockdown of LC3 but not GABARAP causes p62 accumulation in COS7 cells (Maruyama et al., 2014). Taken together, the above cell-based assays reinforce our earlier conclusion derived from biochemical and structural studies, that the AnkB WT peptide can function as potent autophagy inhibitor by targeting all members of the Atg8 family and the AnkG WT or ER peptides can selectively target the GABARAPs and spare the LC3s.

Another experiment deals with SQST-1::GFP. Kind of experiment: SQST-1::GFP aggregate accumulation in C. elegans expressing the peptides. It is filed as in vivo. From the text: We next determined whether the AnkB WT peptide blocks autophagy in C. elegans. Autophagy is required for degradation of a variety of protein substrates, including the C. elegans p62 homolog SQST-1 during development (Tian et al., 2010). In the wild type animals, SQST-1::GFP is weakly expressed and diffusely localized in the cytoplasm, while numerous SQST-1 aggregates accumulate in autophagy mutants (Tian et al., 2010). The AnkB WT peptide fused with the Cherry reporter (Cherry::AnkB WT) or Cherry::AnkB WR was expressed under the control of the nfya-1 promoter, which is expressed ubiquitously from the embryonic to adult stages. The expression plasmids were injected into animals carrying integrated SQST-1::GFP reporter (bpIs151) and transgenic lines were obtained and analyzed.
Similarly, we also tested the blocking effect of AnkG peptides in C. elegans. […] This observation is somewhat different from that in mammalian heterologous cells. This may be explained by the different roles of the two families in different organisms. In mammal, p62 degradation is dependent on LC3 but not GABARAP (Maruyama et al., 2014), so blocking GABARAP binding has minimal effect on p62 degradation. However, in C. elegans, LGG-1 acts upstream to LGG-2 (Manil-Segalen et al., 2014; Wu et al., 2015), so blocking either of them will lead to defect in SQST-1 degradation.
Although a large collection of autophagy mutants were isolated from genetic screens (Tian et al., 2010), assays to inhibit autophagy activity in a spatiotemporal manner are not available. We investigated whether the AnkB peptide can block autophagy in a tissue- and temporal-specific manner. The AnkB peptide was expressed under the control of tissue-specific promoters, including the promoter of myo-3 for body wall muscle cells, y37A1B.5 for hypodermal cells and vha-6 for intestinal cells. The expression constructs were injected into animals carrying the corresponding tissue-specific SQST-1::GFP expression integrated lines.
We also examined whether the AnkB peptide can impair autophagy in a temporal control manner. The expression of AnkB WT was driven by the promoter of col-19, which is expressed in hypodermal cells from the young adult stage onwards.

The test system of experiment [5] is C. elegans. Briefly: C. elegans hatching and development. As to conditions: Pnfya-1::Cherry fusion. The format is in vivo. From the text:
Autophagy plays critical roles in various physiological processes occurring during development or in adult C. elegans (Zhang et al., 2015). Fewer autophagy mutants develop into larvae. […] 60.8% embryos expressing the AnkB WT peptide hatched, compared to 96.9% of embryos expressing AnkB WR (FIG. 8G). Autophagy mutants also grow slowly. […] Thus, the AnkB WT peptide blocks autophagy during C. elegans development.

Experiment [6] relates to C. elegans. Kind of experiment: C. elegans life span. It is filed as in vivo. From the text:
Autophagy is known to regulate the adult worm aging process. […] The autophagy defect caused by AnkB was weaker than that in autophagy mutants.

The test system of experiment [7] is GFP-RFP-LC3B puncta in COS7 cells. Kind of experiment: Autophagosome marker co-localization in COS7 cells co-transfected with GFP-RFP-LC3B. It is filed as cell-based. The following applies: Myc tagged peptide, low expression level. From the text:
We next tried to explore the potential applications of the Ank-derived peptides as autophagosome markers. The COS7 cells were co-transfected with GFP-RFP-LC3B and Myc tagged AnkB WT or AnkB WR peptides. […] LC3B are mainly localized on the autophagosome as vast majority of the puncta are both green and red (FIG. 11A).

Chain of LGG-1 (Q09490 1-116 limits assumed): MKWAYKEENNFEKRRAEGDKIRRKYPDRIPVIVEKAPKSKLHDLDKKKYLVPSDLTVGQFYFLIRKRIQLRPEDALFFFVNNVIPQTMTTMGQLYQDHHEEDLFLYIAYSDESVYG

With “AnkB W1592R: AnkB LIR with Trp1592 substituted by Arg; control for functional studies (VEEERVIVSDEEIEEARQKAPLEITEY; AnkB W1592R human recombinant peptide, prepared in the lab)”, the “binding to Atg8 family members (in words)” value in experiment [1] was “dramatically decreased”. The “binding to LGG-1 (in words)” value with LGG-1 was “eliminated the bindings”. For the same substance, the “binding to LGG-2 (in words)” value in the experiment with LGG-2 is on record as “eliminated the bindings”. Further, the LC3-positive puncta number entry in experiment [2] is given as “no impact”. Moreover, the GABARAP-positive puncta number result in experiment [3] is reported as “no impact”. Further, in experiment [4], the “p62-positive puncta versus mCherry vector control” value is “neither of the AnkB/G WR peptides could induce p62-positive puncta increase”. Moreover, the “SQST-1::GFP aggregates” value in the experiment on SQST-1::GFP (Cherry fusion, FIG. 8, embryo) was “no SQST-1::GFP aggregates”; in the experiment with SQST-1::GFP (Cherry fusion, FIG. 8, larvae), “no SQST-1::GFP aggregates”; with SQST-1::GFP (Cherry fusion, nfya-1 promoter (ubiquitous), multiple tissues, embryonic to adult stages), “no SQST-1::GFP aggregates were formed”; with SQST-1::GFP (mCherry fusion, hypodermal cells, embryo (FIG. 9)) it was “no SQST-1::GFP aggregates”; with SQST-1::GFP (mCherry fusion, hypodermis, L4 larvae (FIG. 9)), “no SQST-1::GFP aggregates”; in the experiment on SQST-1::GFP (myo-3 promoter, muscle cells, L4 larvae) it was “no SQST-1::GFP aggregates”. In addition, the “SQST-1::GFP aggregates” value in the experiment on SQST-1::GFP (myo-3 promoter, muscle, embryo) is “no SQST-1::GFP”; with SQST-1::GFP (tissue-specific promoters myo-3, y37A1B.5, vha-6, embryonic to adult stages), “no accumulation”; with SQST-1::GFP (vha-6 promoter, intestine cells, embryo), “no SQST-1::GFP aggregates”; in the experiment on SQST-1::GFP (vha-6 promoter, intestine cells, larvae (FIG. 10S, 10T)), “no SQST-1::GFP aggregates”. The “embryos hatched (hatch rate)” value in the experiment on C. elegans [5] amounted to 96.9%. Besides, the Median lifespan is on record as 18.72 days in the experiment on C. elegans [6] (Pmyo-3::ch:: fusion (muscle)), 19.15 days in the experiment with C. elegans [6] (Pnfya-1::ch:: fusion (ubiquitous)), 18.13 days with C. elegans [6] (Pvha-6::ch:: fusion (intestine)) and 18.63 days with C. elegans [6] (Py37a1b.5::ch:: fusion (hypodermal cells)). Besides, the “localization relative to GFP-RFP-LC3B dual-color (autophagosome) puncta” value in experiment [7] is recorded as “diffused in the cells”.

(Values after patent US11229680B2, “Autophagy inhibitors” (The Hong Kong University of Science and Technology, priority 2017, dated 2022).)
